Data on one compound can be found in patent US7998936B2, “Use of timosaponin Bll in the preparation of a medicament or product for the prevention and treatment of stroke” (Institute of Radiation Medicine, Academy of Military …, priority 2004, dated 2011).

This experiment relates to FeCl3-Induced Middle Cerebral Artery Thrombosis (MCAT) Rats. The experiment can be described thus: Cerebral infarct size (TTC staining) in FeCl3-induced middle cerebral artery thrombosis rats. The format is in vivo, rat. Conditions: for cerebral infarct size percentage to affected side / cerebral infarct size percentage to total brain: x ± s; for effect on cerebral infarct size (in words): 20 mg/kg and 40 mg/kg, 7 days. The source says:
Tamura and Liu's methods were used with modifications to prepare the model. Rats were anesthetized by intraperitoneal injection of 10% chloral hydrate (0.35 g/kg); and fixed with right arm reclining. An arc incision of about 1.5 cm in length was made at the midpoint between the link of paropia and external auditory canal and temporalis was removed to expose the temporal bone. […] The surrounding-tissues were protected with a piece of plastic film. A small piece of quantitative filter paper, which had absorbed 10 μL of a 50% ferric chloride solution, was applied on this segment of middle cerebral artery. The filter paper was removed after 30 min, and local tissues were rinsed with normal saline solution, followed by suture layer by layer. Then the experimental rats were put back to rearing cage. The temperature was controlled at 24° C. For the sham-operation group, the operation procedures were the same as the model group except for the application of the ferric chloride solution.
After behavior assessment, the animals were decapitated to remove the brains. The olfactory bulb, cerebellum and lower brain stem were removed, and the remaining part was cut into 5 coronal sections below 4° C. The sections were immediately placed into a TTC staining solution (containing 1.5 m 4% TTC, 0.1 ml 1M K2HPO4 and water (balance) per 5 ml staining solution), followed by incubation in dark at 37° C. for 30 min. Then, the sections were transferred into a solution of 10% formaldehyde and incubated in dark for 24 h. After staining, the non-ischemic areas were rose red, and the infracted areas were white. The white tissues were carefully collected and weighed. The extent of cerebral infarction was expressed as a percentage (%) of infracted tissue to the weight of total brain and also to the affected side of brain.

As for `C[C@@H](CCC1(O)O[C@H]2C[C@H]3[C@@H]4CC[C@@H]5C[C@@H](O[C@@H]6O[C@H](CO)[C@H](O)[C@H](O)[C@H]6O[C@@H]6O[C@H](CO)[C@@H](O)[C@H](O)[C@H]6O)CC[C@]5(C)[C@H]4CC[C@]3(C)[C@H]2[C@@H]1C)CO[C@@H]1O[C@H](CO)[C@@H](O)[C@H](O)[C@H]1O` (stereo partly drawn) [Timosaponin BII, (25S)-26-O-β-D-glucopyranosyl-22-hydroxy-5β-furostane-3β,26-diol-3-O-β-D-glucopyranosyl(1→2)-β-D-galactopyranoside], the “cerebral infarct size percentage to affected side” value reads like this: (10 mg/kg by gavage 7 days) 6.35 ± 3.39%; (20 mg/kg by gavage 7 days) 5.37 ± 2.20 %; (40 mg/kg by gavage 7 days) 3.88 ± 2.38 %. The “cerebral infarct size percentage to total brain” value (10 mg/kg by gavage 7 days) is on record as 3.27 ± 1.74%, the “cerebral infarct size percentage to total brain” value (20 mg/kg by gavage 7 days) was 2.92 ± 1.20 % and the “cerebral infarct size percentage to total brain” value (40 mg/kg by gavage 7 days) is on record as 1.99 ± 1.20 %. The “effect on cerebral infarct size (in words)” value is recorded as “significantly reduced the cerebral infarct size” (vs. model group P<0.05, P<0.01) and “significantly reduce the cerebral infarct size” (vs. model group P<0.05, P<0.01, listed as timosaponin BIT).
